Measured values reported in US11254668B2, “Pyrazolo[1,5-A]pyrazin-4-yl and related derivatives” (Pfizer Inc., priority 2017, dated 2022).
Where two headings read alike, the source gives them in different places.

Columns and labels:
Format in all cases: biochemical
TYK2 = TYK2 (Homo sapiens (Human), UniProt P29597); experiment: JAK Caliper Enzyme Assay at 1 mM ATP, TYK2
Summary of the method: (§1)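 Inhibition is measured as reduced phosphorylation of a synthetic peptide by the recombinant human kinase domain at 1 mM ATP. Conditions give 20–30% conversion at room temperature before EDTA quench, and on-chip separation of labelled substrate and product yields percent conversion for dose–response plotting.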

JAK2 = JAK2 (Homo sapiens (Human), UniProt O60674); experiment: JAK Caliper Enzyme Assay at 1 mM ATP, JAK2
Summary of the method: as §1

JAK3 = JAK3 (Homo sapiens (Human), UniProt P52333); experiment: JAK Caliper Enzyme Assay at 1 mM ATP, JAK3
Summary of the method: (§2)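 Recombinant human kinase domains phosphorylated a fluorescent synthetic peptide at room temperature, with enzyme level and time tuned to 20% to 30% conversion; EDTA stop buffer ended reactions. Mobility-shift separation gave percent product from peak heights, normalised to DMSO and positive controls, and IC50s came from concentration–effect curves.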

JAK1 = JAK1 (Homo sapiens (Human), UniProt P23458); experiment: JAK Caliper Enzyme Assay at 1 mM ATP, JAK1
Summary of the method: as §2

Sequence of JAK3 (P52333 822-1111): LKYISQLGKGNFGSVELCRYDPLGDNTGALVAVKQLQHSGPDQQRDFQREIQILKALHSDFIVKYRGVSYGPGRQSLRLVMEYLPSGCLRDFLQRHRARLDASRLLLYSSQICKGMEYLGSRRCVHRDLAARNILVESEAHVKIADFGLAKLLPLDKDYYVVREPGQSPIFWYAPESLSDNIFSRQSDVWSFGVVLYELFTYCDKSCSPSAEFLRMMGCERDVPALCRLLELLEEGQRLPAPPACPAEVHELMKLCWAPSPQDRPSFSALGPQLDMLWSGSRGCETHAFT
Sequence of JAK2 (O60674 849-1124): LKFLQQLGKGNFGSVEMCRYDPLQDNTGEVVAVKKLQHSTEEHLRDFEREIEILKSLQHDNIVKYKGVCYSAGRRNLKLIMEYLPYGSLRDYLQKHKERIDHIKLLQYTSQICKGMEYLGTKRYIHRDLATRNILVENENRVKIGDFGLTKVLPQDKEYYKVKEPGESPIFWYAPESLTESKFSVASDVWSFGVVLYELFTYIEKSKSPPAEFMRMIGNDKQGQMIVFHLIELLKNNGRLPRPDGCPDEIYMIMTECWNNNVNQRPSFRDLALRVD
Sequence of TYK2 (P29597 897-1176): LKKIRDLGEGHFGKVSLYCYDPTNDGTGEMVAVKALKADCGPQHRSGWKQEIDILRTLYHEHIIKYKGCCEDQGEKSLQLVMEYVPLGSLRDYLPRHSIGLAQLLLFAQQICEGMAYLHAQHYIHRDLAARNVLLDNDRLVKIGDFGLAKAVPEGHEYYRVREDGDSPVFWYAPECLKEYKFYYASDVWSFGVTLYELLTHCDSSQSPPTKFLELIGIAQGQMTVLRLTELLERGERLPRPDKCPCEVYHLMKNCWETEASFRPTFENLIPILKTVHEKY
Sequence of JAK1 (P23458 875-1153): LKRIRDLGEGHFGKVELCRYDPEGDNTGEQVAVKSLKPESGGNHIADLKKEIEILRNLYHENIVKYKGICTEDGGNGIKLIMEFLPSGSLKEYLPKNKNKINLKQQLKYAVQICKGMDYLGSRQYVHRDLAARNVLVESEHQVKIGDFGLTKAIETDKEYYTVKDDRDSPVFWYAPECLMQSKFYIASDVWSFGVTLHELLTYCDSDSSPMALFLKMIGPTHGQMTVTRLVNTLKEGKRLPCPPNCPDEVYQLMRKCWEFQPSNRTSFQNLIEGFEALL

SMILES	IC50 (TYK2; JAK Caliper enzyme assay) [nM]	IC50 (JAK2; JAK Caliper enzyme assay) [nM]	IC50 (JAK3; JAK Caliper enzyme assay) [nM]	IC50 (JAK1; JAK Caliper enzyme assay) [nM]	IC50 (TYK2) [nM]	IC50 (JAK2) [nM]	IC50 (JAK3) [nM]	IC50 (JAK1) [nM]
Cn1cc(-c2cc(-c3cnn(C4(CC#N)CC(C#N)C4)n3)n3ccnc3c2)cn1 (stereo not drawn) [Example 474, trans-3-(cyanomethyl)-3-{4-[7-(1-methyl-1H-pyrazol-4-yl)imidazo[1,2-a]pyridin-5-yl]-2H-1,2,3-triazol-2-yl}cyclobutanecarbonitrile]	1120	> 10000	> 10000	> 10000	–	–	–	–
Cn1ncc(-c2cc3ncccc3c(-c3ccn(C4(CC#N)CN(CC(F)(F)F)C4)n3)n2)n1 [Example 154, [3-{3-[7-(2-methyl-2H-1,2,3-triazol-4-yl)-1,6-naphthyridin-5-yl]-1H-pyrazol-1-yl}-1-(2,2,2-trifluoroethyl)azetidin-3-yl]acetonitrile]	–	–	–	–	287	3180	> 10000	> 10000
N#CC[C@]1(n2cc(-c3cc(-c4ccc(O)cc4)cc4nccn34)cn2)C[C@@H](C#N)C1 [Example 468, cis-3-(cyanomethyl)-3-{4-[7-(4-hydroxyphenyl)imidazo[1,2-a]pyridin-5-yl]-1H-pyrazol-1-yl}cyclobutanecarbonitrile]	127	1220	> 10000	1530	–	–	–	–
N#CC[C@]1(n2ccc(-c3nc(-c4cn[nH]c4)cc4ncccc34)n2)C[C@H](C#N)C1 [Example 77, trans-3-(cyanomethyl)-3-{3-[7-(1H-pyrazol-4-yl)-1,6-naphthyridin-5-yl]-1H-pyrazol-1-yl}cyclobutanecarbonitrile]	–	–	–	–	25	242	> 10000	293
Cc1onc(N)c1-c1cc2ncccc2c(-c2ccn(C3(CC#N)CN(S(C)(=O)=O)C3)n2)n1 [Example 147, [3-{3-[7-(3-amino-5-methyl-1,2-oxazol-4-yl)-1,6-naphthyridin-5-yl]-1H-pyrazol-1-yl}-1-(methylsulfonyl)azetidin-3-yl]acetonitrile]	–	–	–	–	7550	> 10000	> 10000	> 10000
N#CC[C@]1(n2ncc(-c3cc(-c4ccc(N)cn4)cc4ncccc34)n2)C[C@@H](C#N)C1 [Example 359, cis-3-{4-[7-(5-aminopyridin-2-yl)quinolin-5-yl]-2H-1,2,3-triazol-2-yl}-3-(cyanomethyl)cyclobutanecarbonitrile]	–	–	–	–	13	69	6700	321
N#CC[C@]1(n2ncc(-c3cc(-c4ccc(N)nc4)cc4ncccc34)n2)C[C@H](C#N)C1 [Example 365, trans-3-{4-[7-(6-aminopyridin-3-yl)quinolin-5-yl]-2H-1,2,3-triazol-2-yl}-3-(cyanomethyl)cyclobutanecarbonitrile]	–	–	–	–	103	938	> 10000	2660
N#CC[C@]1(n2ncc(-c3cc(-c4cc(C(N)=O)ccn4)cc4ncccc34)n2)C[C@@H](C#N)C1 [Example 354, 2-(5-{2-[trans-3-cyano-1-(cyanomethyl)cyclobutyl]-2H-1,2,3-triazol-4-yl}quinolin-7-yl)pyridine-4-carboxamide]	–	–	–	–	7240	> 10000	> 10000	> 10000
N#CC[C@]1(n2ccc(-c3nc(-c4ccc(N)nc4)cc4ncccc34)n2)C[C@H](C#N)C1 [Example 196, trans-3-{3-[7-(6-aminopyridin-3-yl)-1,6-naphthyridin-5-yl]-1H-pyrazol-1-yl}-3-(cyanomethyl)cyclobutanecarbonitrile]	–	–	–	–	45	233	> 10000	488
Cc1ncc(-c2cc3ncccc3c(-c3ccn(C4(CC#N)CN(CC(F)(F)F)C4)n3)n2)n1C [Example 152, [3-{3-[7-(1,2-dimethyl-1H-imidazol-5-yl)-1,6-naphthyridin-5-yl]-1H-pyrazol-1-yl}-1-(2,2,2-trifluoroethyl)azetidin-3-yl]acetonitrile]	–	–	–	–	4140	> 10000	> 10000	> 10000
N#CCC1(n2ccc(-c3nc(-c4ccncc4F)cc4ncccc34)n2)CN(CC(F)(F)F)C1 [Example 179, [3-{3-[7-(3-fluoropyridin-4-yl)-1,6-naphthyridin-5-yl]-1H-pyrazol-1-yl}-1-(2,2,2-trifluoroethyl)azetidin-3-yl]acetonitrile]	–	–	–	–	285	9670	> 10000	> 10000
CCn1cc(-c2cc3ncccc3c(-c3ccn(C4(CC#N)CN(CC(F)(F)F)C4)n3)n2)cn1 [Example 111, [3-{3-[7-(1-ethyl-1H-pyrazol-4-yl)-1,6-naphthyridin-5-yl]-1H-pyrazol-1-yl}-1-(2,2,2-trifluoroethyl)azetidin-3-yl]acetonitrile]	–	–	–	–	27	139	9060	458
Cc1n[nH]cc1-c1cc2ncccc2c(-c2ccn([C@]3(CC#N)C[C@H](C#N)C3)n2)n1 [Example 90, cis-3-(cyanomethyl)-3-{3-[7-(3-methyl-1H-pyrazol-4-yl)-1,6-naphthyridin-5-yl]-1H-pyrazol-1-yl}cyclobutanecarbonitrile]	–	–	–	–	32	126	> 10000	269
COc1nc(-c2cc(-c3cnn([C@]4(CC#N)C[C@H](C#N)C4)n3)c3cccnc3c2)ccc1N [Example 383, cis-3-{4-[7-(5-amino-6-methoxypyridin-2-yl)quinolin-5-yl]-2H-1,2,3-triazol-2-yl}-3-(cyanomethyl)cyclobutanecarbonitrile]	7	35	4250	59	–	–	–	–
C[C@]1(C#N)C[C@](CC#N)(n2ncc(-c3cc(-c4c[nH]nc4N)cc4ncccc34)n2)C1 [Example 321, trans-3-{4-[7-(3-amino-1H-pyrazol-4-yl)quinolin-5-yl]-2H-1,2,3-triazol-2-yl}-3-(cyanomethyl)-1-methylcyclobutanecarbonitrile]	–	–	–	–	844	7690	> 10000	> 10000
Cc1nc(-c2cc(-c3cnn([C@]4(CC#N)C[C@@H](C#N)C4)n3)c3cccnc3c2)ccc1CCO [Example 379, trans-3-(cyanomethyl)-3-(4-{7-[5-(2-hydroxyethyl)-6-methylpyridin-2-yl]quinolin-5-yl}-2H-1,2,3-triazol-2-yl)cyclobutanecarbonitrile]	123	540	> 10000	4360	–	–	–	–
N#CC[C@]1(n2ccc(-c3nc(-c4cn[nH]c4)cc4ncccc34)n2)C[C@@H](c2ccn[nH]2)C1 [Example 85, [cis-3-(1H-pyrazol-5-yl)-1-{3-[7-(1H-pyrazol-4-yl)-1,6-naphthyridin-5-yl]-1H-pyrazol-1-yl}cyclobutyl]acetonitrile]	–	–	–	–	30	103	5240	166
CO[C@H]1C[C@](CC#N)(n2ccc(-c3nc(-c4cn[nH]c4)cc4ncccc34)n2)C1 [Example 81, (trans-3-methoxy-1-{3-[7-(1H-pyrazol-4-yl)-1,6-naphthyridin-5-yl]-1H-pyrazol-1-yl}cyclobutyl)acetonitrile]	–	–	–	–	101	2170	> 10000	3090
CNc1cc(-c2cc3ncccc3c(-c3ccn([C@]4(CC#N)C[C@H](C#N)C4)n3)n2)nn1C [Example 69, cis-3-(cyanomethyl)-3-(3-{7-[1-methyl-5-(methylamino)-1H-pyrazol-3-yl]-,6-naphthyridin-5-yl}-1H-pyrazol-1-yl)cyclobutanecarbonitrile]	–	–	–	–	158	556	> 10000	3400
Cn1cc(-c2cc(-c3cnn(C4(CC#N)CN(S(C)(=O)=O)C4)n3)c3cccnc3c2)cn1 [Example 323, [3-{4-[7-(1-methyl-1H-pyrazol-4-yl)quinolin-5-yl]-2H-1,2,3-triazol-2-yl}-1-(methylsulfonyl)azetidin-3-yl]acetonitrile]	–	–	–	–	69	244	> 10000	2840
CC(C)(O)[C@H]1C[C@@](CC#N)(n2ccc(-c3nc(-c4cn[nH]c4)cc4ncccc34)n2)C1 [Example 82, [cis-3-(2-hydroxpropan-2-yl)-1-{3-[7-(1H-pyrazol-4-yl)-1,6-naphthyridin-5-yl]-1H-pyrazol-1-yl}cyclobutyl]acetonitrile]	–	–	–	–	418	2390	> 10000	3580
N#CCC1(n2ccc(-c3nc(-c4cc[nH]n4)cc4ncccc34)n2)CN(CC(F)(F)F)C1 [Example 16, [3-{3-[7-(1H-pyrazol-3-yl)-1,6-naphthyridin-5-yl]-1H-pyrazol-1-yl}-1-(2,2,2-trifluoroethyl)azetidin-3-yl]acetonitrile]	–	–	–	–	23	431	> 10000	475
N#CCC1(n2ccc(-c3nc(-c4cnn(C5CNC5)c4)cc4ncccc34)n2)CN(CC(F)(F)F)C1 [Example 115, [3-(3-{7-[1-(azetidin-3-yl)-1H-pyrazol-4-yl]-1,6-naphthyridin-5-yl}-1H-pyrazol-1-yl)-1-(2,2,2-trifluoroethyl)azetidin-3-yl]acetonitrile]	–	–	–	–	120	327	> 10000	7060
CS(=O)(=O)Nc1cccc(-c2cc(-c3cnn(C4(CC#N)CC(C#N)C4)n3)c3cccnc3c2)n1 (stereo not drawn) [Example 372, N-[6-(5-{2-[cis-3-cyano-1-(cyanomethyl)cyclobutyl]-2H-1,2,3-triazol-4-yl}quinolin-7-yl)pyridin-2-yl]methanesulfonamide]	21	80	5970	600	–	–	–	–
